Laboratory results published in the NIST ThermoML archive (doi:10.1021/acs.jced.5b00135).
Numbers after ± are expanded uncertainties.

Key:
[1] = Molar enthalpy of transition or fusion; conditions: Crystal; DSC
[2] = Crystal; DTA

Molar enthalpy of transition or fusion [1]: 5.16 ± 0.263 kcal/mol | Normal melting temperature [2]: 128.50 ± 0.7 °C
SMILES: C=CC(=O)NC(C)(C)C [N-tert-butylacrylamide]
